This is an account of results in ChEMBL document CHEMBL1142202, “Putative role of beta-1,3 glucans in Candida albicans biofilm resistance” (2007).

≈ marks a conversion by molar mass, not a printed value. Calls of active or inactive are those of the source. The calls are words filed in the database; no cut-off is given here. Bounds are passed on as bounds.

The subject of assay [1] is Candida albicans. In words: Antifungal activity against planktonic Candida albicans K1. The format is functional.
Assay [2] has as its system Candida albicans. In words: Effect on biofilm cell viability of Candida albicans K1 at 1000 ug/ml. The format is functional, organism-based.
Assay [3] concerns Candida albicans. Description: Increase in antifungal activity against Candida albicans K1 biofilm cells assessed as 50 percent reduction of optical density in presence of beta 1,3 glucanase after 48 hrs by XTT assay. The format is functional.
The test system of assay [4] is Candida albicans. Description: Increase in drug binding to Candida albicans K1 biofilm cell walls, supernatant and matrix as compared to respective planktonic controls. Type of assay: functional, organism-based.
Assay [5] deals with Candida albicans. In words: Increase in antifungal activity against Candida albicans K1 biofilm cells assessed as 80 percent reduction of optical density in presence of beta 1,3 glucanase after 48 hrs by XTT assay. Type of assay: functional. For orientation: Formazan colour is commonly taken as a measure of viable cells.
Assay [6] deals with Candida albicans. Description: Antifungal activity against planktonic Candida albicans K1 in presence of laminarin after 48 hrs by CLSI M27 A micro-broth method. The settings on record: K1, 48 h. Type of assay: functional.
Assay [7] relates to Candida albicans. In words: Antifungal activity against Candida albicans K1 biofilms in in-vivo rat catheter model in presence of beta 1,3-glucanase. Type of assay: functional, organism-based.
Assay [8] concerns Candida albicans. Description: Antifungal activity against planktonic Candida albicans K1 in presence of biofilm material after 48 hrs by CLSI M27 A micro-broth method. The format is functional. The settings on record: K1, 48 h.

As to `OC(Cn1cncn1)(Cn1cncn1)c1ccc(F)cc1F` [FLUCONAZOLE], the MIC is 0.5 µg/mL (≈ 1.63 µM) in the assay with Candida albicans [1], greater than 128 µg/mL with Candida albicans [6] and greater than 128 µg/mL in the assay on Candida albicans [8]. For the same molecule, in the assay on Candida albicans [2], the result was inactive. Moreover, the “fractional inhibitory concentration index (FICI)” value is recorded as 0.31 with Candida albicans [3] and 0.1 in the assay on Candida albicans [5]. For the same molecule, the result with Candida albicans [4] and with Candida albicans [7] was Active.
For the molecule `C[C@@H]1[C@H](O)[C@@H](C)/C=C/C=C/C=C/C=C/C=C/C=C/C=C/[C@H](O[C@@H]2O[C@H](C)[C@@H](O)[C@H](N)[C@@H]2O)C[C@@H]2O[C@](O)(C[C@@H](O)C[C@@H](O)[C@H](O)CC[C@@H](O)C[C@@H](O)CC(=O)O[C@H]1C)C[C@H](O)[C@H]2C(=O)O` [AMPHOTERICIN B], the “fractional inhibitory concentration index (FICI)” value was 0.2 in the assay with Candida albicans [3] and 0.21 in the assay with Candida albicans [5].
